Laboratory results as given in ChEMBL document CHEMBL5303304, “EUbOPEN Chemogenomics Library - IncuCyte” (2023).

Key:
Format in all cases: toxicity, cell-based
[1] = tested on: HEK-293T; experiment: Incucyte cell viability with HEK293T; conditions: human, 10 µM, compound concentration 10 uM
[2] = tested on: U2OS; experiment: Incucyte cell viability with U2OS; conditions: human, 10 µM, compound concentration 10 uM
[3] = tested on: Fibroblast; experiment: Incucyte cell viability with human fibroblast; conditions: 10 µM, compound concentration 10 uM
Also: unitless GR value; below 1 slowed growth and below 0 cell loss.

SMILES	Growth Rate ([1]; 6 h, replicate number 1)	Growth Rate ([1]; 12 h, replicate number 1)	Growth Rate ([1]; 18 h, replicate number 1)	Growth Rate ([1]; 24 h, replicate number 2)	Growth Rate ([2]; 0 h, replicate number 1)	Growth Rate ([2]; 0 h, replicate number 2)	Growth Rate ([2]; 12 h, replicate number 1)	Growth Rate ([2]; 12 h, replicate number 2)	Growth Rate ([2]; 18 h, replicate number 1)	Growth Rate ([2]; 18 h, replicate number 2)	Growth Rate ([2]; 24 h, replicate number 2)	Growth Rate ([3]; 0 h, replicate number 1)	Growth Rate ([3]; 6 h, replicate number 2)	Growth Rate ([3]; 12 h, replicate number 2)	Growth Rate ([3]; 18 h, replicate number 1)	Growth Rate ([3]; 18 h, replicate number 2)	Growth Rate ([3]; 24 h, replicate number 1)	Growth Rate ([1]; 24 h, replicate number 1)	Growth Rate ([3]; 12 h, replicate number 1)	Growth Rate ([1]; 0 h, replicate number 2)	also measured
O=C(Nc1cc(C(F)(F)F)cc(C(F)(F)F)c1)c1cc(Cl)ccc1O [IMD-0354]	0.18	0.81	0.76	0.36	-0.14	-1	0.7	0.03	0.69	0.18	0.26	-0.62	-1	-0.61	-0.63	-0.45	0.42				Growth Rate ([1]; 6 h, replicate number 2): -0.86; Growth Rate ([1]; 12 h, replicate number 2): -0.2; Growth Rate ([1]; 18 h, replicate number 2): 0.17; Growth Rate ([2]; 6 h, replicate number 1): 0.76; Growth Rate ([2]; 6 h, replicate number 2): -0.23; Growth Rate ([2]; 24 h, replicate number 1): 0.71; Growth Rate ([3]; 0 h, replicate number 2): -0.02; Growth Rate ([3]; 24 h, replicate number 2): -0.33
Nc1ncnc2c1c(I)cn2[C@@H]1O[C@H](CO)[C@@H](O)[C@H]1O [IODOTUBERCIDIN]	-0.1	-0.22	-0.21	-0.16	-0.27		0.15	-0.14	-0.13	-0.04	-0.18		0.95	0.25	0.57	0.43	0.53	-0.1	0.39		Growth Rate ([1]; 0 h, replicate number 1): -0.62; Growth Rate ([1]; 6 h, replicate number 2): -0.01; Growth Rate ([1]; 12 h, replicate number 2): -0.29; Growth Rate ([1]; 18 h, replicate number 2): -0.24; Growth Rate ([2]; 6 h, replicate number 1): -0.39; Growth Rate ([2]; 6 h, replicate number 2): 0.34; Growth Rate ([2]; 24 h, replicate number 1): -0.26; Growth Rate ([3]; 0 h, replicate number 2): 0.24; Growth Rate ([3]; 6 h, replicate number 1): 0.18
CN[C@@H](C)C/C=C/c1cncc(OC(C)C)c1 [ISPRONICLINE]	0.31	0.02	0.32	0.96	-0.66	0.2	0.82		0.83			-0.27	0.53	0.98	0.22	0.72	0.97	0.28	-0.29	0.86	Growth Rate ([1]; 0 h, replicate number 1): 0.9; Growth Rate ([2]; 6 h, replicate number 1): 0.65; Growth Rate ([2]; 24 h, replicate number 1): 0.83; Growth Rate ([3]; 0 h, replicate number 2): -0.46; Growth Rate ([3]; 24 h, replicate number 2): 0.87
COC(=O)C1=C(C)NC(C)=C(C(=O)OC(C)C)C1c1cccc2nonc12 (stereo not given) [ISRADIPINE]					0.46	0.25	1	0.87		0.89	0.9				-0.41		0.29		-1	0.32	Growth Rate ([1]; 0 h, replicate number 1): 0.8; Growth Rate ([2]; 6 h, replicate number 2): 0.83; Growth Rate ([3]; 6 h, replicate number 1): -0.03
CC(C)(C)c1cc(C(C)(C)C)c(NC(=O)c2c[nH]c3ccccc3c2=O)cc1O [IVACAFTOR]	0.19	0.71	0.65	0.72		0.5		0.7		0.92	0.89		0.55		0.28	0.65		0.92		0.3	Growth Rate ([1]; 6 h, replicate number 2): 0.98; Growth Rate ([1]; 12 h, replicate number 2): 0.69; Growth Rate ([1]; 18 h, replicate number 2): 0.75; Growth Rate ([2]; 24 h, replicate number 1): 0.98; Growth Rate ([3]; 0 h, replicate number 2): -0.84; Growth Rate ([3]; 24 h, replicate number 2): 0.91
COCCc1ccc(-c2c(C)nc3c(N4CCOCC4)ccnn23)cn1 [JNJ-42396302]			0.91		-0.6	0.07	0.98	0.93		0.99		0.07	0.78	0.81	0.88	0.84	0.86	0.86	0.86	0.44	Growth Rate ([2]; 6 h, replicate number 2): 0.56; Growth Rate ([3]; 24 h, replicate number 2): 0.91
COc1nc2ccc([C@@](O)(c3ccccc3)C3CCN(C(C)=O)CC3)cc2c(Cl)c1Cc1ccc(-n2cccn2)cc1 [JNJ-54119936]		0.65	0.37		-1	0.93	0.93	0.72	0.84	0.7	0.64	-1				0.98		0.25		-1	Growth Rate ([1]; 0 h, replicate number 1): -0.96; Growth Rate ([2]; 6 h, replicate number 2): 0.45; Growth Rate ([2]; 24 h, replicate number 1): 0.94
CC(=O)Nc1ncc(CN2CCC[C@H](Cc3cc(C)nc(C)c3)C2)s1 [JNJ-65355394]	0.82	0.83			-1			0.62	0.96	0.92	0.78	-1	0.74	0.75		0.94		0.91	0.9	-0.2	Growth Rate ([2]; 6 h, replicate number 1): -0.86
CC(=O)Nc1nc(CN2CCC[C@H](Cc3cc(C)nc(C)c3)C2)cs1 [JNJ-73924149]	0.52	0.71	0.81	0.95				0.87	0.89		0.91		0.73	0.74	0.87	0.72		0.82	0.89		Growth Rate ([1]; 6 h, replicate number 2): 0.53; Growth Rate ([1]; 18 h, replicate number 2): 0.95; Growth Rate ([3]; 6 h, replicate number 1): 0.58; Growth Rate ([3]; 24 h, replicate number 2): 0.79
NCCCNCCCCNCCC(=O)NCCCCCNC(=O)[C@H](CC(N)=O)NC(=O)Cc1ccc(O)cc1O [JORO SPIDER TOXIN 3]						-0.97						0.16			0.85		0.49			-1	Growth Rate ([1]; 0 h, replicate number 1): -0.96; Growth Rate ([3]; 0 h, replicate number 2): -1
N#CN1CC[C@@H](C(=O)Nc2nc3c(s2)CN(C(=O)CN=[N+]=[N-])CC3)C1 [JYQ88]	0.69	0.77	1	0.85	-1		0.95					-1	0.78	0.49		0.75	1	0.96	0.78		Growth Rate ([1]; 0 h, replicate number 1): 0.97; Growth Rate ([1]; 6 h, replicate number 2): 0.71; Growth Rate ([1]; 12 h, replicate number 2): 0.7; Growth Rate ([1]; 18 h, replicate number 2): 0.77; Growth Rate ([3]; 24 h, replicate number 2): 0.77
